Assay results as given in patent US10632106B2, “Methods of cancer treatment with 2-(1′H-Indole-3′-carbonyl)-thiazole-4-carboxylic acid methyl ester” (Ariagen, Inc., priority 2009, dated 2020).

Assay: Effects of oral water administration on ITE dosed mice
Assay type: in vivo
Set-up: key to feces appearance: Moderate; Dry
Protocol: Oral injection of water was initiated at the same day i.p. administration of ITE was started. Daily oral gavage at 10 or 20 ml/kg was performed immediately following daily i.p. injection of ITE or DMSO continuously for the entire duration of the study. Both oral and i.p. injection were accidentally skipped at day 14 due to a mistake of the experimenter(s) and all of the other dosing were executed normally. Bodyweights (individual), food consumed (in group), feces weights (in group), and feces appearance (in group) were recorded every two days. Death of animal(s) and approximate cause of death etc. were also recorded.

[1] = ITE-L 200 mg/kg i.p. + Water-0, day 4
[2] = ITE-L 200 mg/kg i.p. + Water-0, day 6
[3] = ITE-L 200 mg/kg i.p. + Water-0, day 8
[4] = ITE-L 200 mg/kg i.p. + Water-0, day 10
[5] = ITE-L 200 mg/kg i.p. + Water-0, day 12
[6] = ITE-L 200 mg/kg i.p. + Water-0, day 14
[7] = ITE-L 200 mg/kg i.p. + Water-0, day 18 (line r16)
[8] = ITE-L 200 mg/kg i.p. + Water-0, day 18 (line r17)
[9] = ITE-L 200 mg/kg i.p. + Water-0, day 20
[10] = ITE-L 200 mg/kg i.p. + Water-0, day 22
[11] = ITE-L 200 mg/kg i.p. + Water-0, day 24
[12] = ITE-L 200 mg/kg i.p. + Water-0, day 26
[13] = ITE-L 200 mg/kg i.p. + Water-0, day 28
[14] = ITE-L 200 mg/kg i.p. + Water-0, day 30
[15] = ITE-L 200 mg/kg i.p. + Water-0, day 32
[16] = ITE-L 200 mg/kg i.p. + Water-0, day 34
[17] = ITE-L 200 mg/kg i.p. + Water-0, day 36
[18] = ITE-L 200 mg/kg i.p. + Water-H 20 ml/kg, day 4
[19] = ITE-L 200 mg/kg i.p. + Water-H 20 ml/kg, day 6
[20] = ITE-L 200 mg/kg i.p. + Water-H 20 ml/kg, day 8
[21] = ITE-L 200 mg/kg i.p. + Water-H 20 ml/kg, day 10
[22] = ITE-L 200 mg/kg i.p. + Water-H 20 ml/kg, day 12
[23] = ITE-L 200 mg/kg i.p. + Water-H 20 ml/kg, day 14
[24] = ITE-L 200 mg/kg i.p. + Water-H 20 ml/kg, day 18 (line r16)
[25] = ITE-L 200 mg/kg i.p. + Water-H 20 ml/kg, day 18 (line r17)
[26] = ITE-L 200 mg/kg i.p. + Water-H 20 ml/kg, day 20
[27] = ITE-L 200 mg/kg i.p. + Water-H 20 ml/kg, day 22
[28] = ITE-L 200 mg/kg i.p. + Water-H 20 ml/kg, day 24
[29] = ITE-L 200 mg/kg i.p. + Water-H 20 ml/kg, day 26
[30] = ITE-L 200 mg/kg i.p. + Water-H 20 ml/kg, day 28
[31] = ITE-L 200 mg/kg i.p. + Water-H 20 ml/kg, day 30
[32] = ITE-L 200 mg/kg i.p. + Water-H 20 ml/kg, day 32
[33] = ITE-L 200 mg/kg i.p. + Water-H 20 ml/kg, day 34
[34] = ITE-L 200 mg/kg i.p. + Water-H 20 ml/kg, day 36
[35] = ITE-L 200 mg/kg i.p. + Water-L 10 ml/kg, day 4
[36] = ITE-L 200 mg/kg i.p. + Water-L 10 ml/kg, day 6
[37] = ITE-L 200 mg/kg i.p. + Water-L 10 ml/kg, day 8
[38] = ITE-L 200 mg/kg i.p. + Water-L 10 ml/kg, day 10
[39] = ITE-L 200 mg/kg i.p. + Water-L 10 ml/kg, day 12
[40] = ITE-L 200 mg/kg i.p. + Water-L 10 ml/kg, day 14
[41] = ITE-L 200 mg/kg i.p. + Water-L 10 ml/kg, day 18 (line r16)
[42] = ITE-L 200 mg/kg i.p. + Water-L 10 ml/kg, day 18 (line r17)
[43] = ITE-L 200 mg/kg i.p. + Water-L 10 ml/kg, day 20
[44] = ITE-L 200 mg/kg i.p. + Water-L 10 ml/kg, day 22
[45] = ITE-L 200 mg/kg i.p. + Water-L 10 ml/kg, day 24
[46] = ITE-L 200 mg/kg i.p. + Water-L 10 ml/kg, day 26
[47] = ITE-L 200 mg/kg i.p. + Water-L 10 ml/kg, day 28
[48] = ITE-L 200 mg/kg i.p. + Water-L 10 ml/kg, day 30
[49] = ITE-L 200 mg/kg i.p. + Water-L 10 ml/kg, day 32
[50] = ITE-L 200 mg/kg i.p. + Water-L 10 ml/kg, day 34
[51] = ITE-L 200 mg/kg i.p. + Water-L 10 ml/kg, day 36

SMILES: COC(=O)c1csc(C(=O)c2c[nH]c3ccccc23)n1 [ITE, 2-(1′H-indole-3′-carbonyl)-thiazole-4-carboxylic acid methyl ester]
- feces appearance [1]: M
- number of mice that died [1]: 0
- feces appearance [2]: M
- number of mice that died [2]: 0
- feces appearance [3]: D
- number of mice that died [3]: 0
- feces appearance [4]: D
- number of mice that died [4]: 0
- feces appearance [5]: D
- number of mice that died [5]: 0
- feces appearance [6]: D
- number of mice that died [6]: 0
- feces appearance [7]: D
- number of mice that died [7]: 0
- feces appearance [8]: D
- number of mice that died [8]: 0
- feces appearance [9]: D
- number of mice that died [9]: 0
- feces appearance [10]: D
- number of mice that died [10]: 0
- feces appearance [11]: D
- number of mice that died [11]: 0
- feces appearance [12]: D
- number of mice that died [12]: 0
- feces appearance [13]: D
- number of mice that died [13]: 1
- feces appearance [14]: D
- number of mice that died [14]: 1
- feces appearance [15]: D
- number of mice that died [15]: 1
- feces appearance [16]: D
- number of mice that died [16]: 1
- feces appearance [17]: D
- number of mice that died [17]: 1
- feces appearance [18]: M
- number of mice that died [18]: 0
- feces appearance [19]: M
- number of mice that died [19]: 0
- feces appearance [20]: D
- number of mice that died [20]: 0
- feces appearance [21]: D
- number of mice that died [21]: 0
- feces appearance [22]: D
- number of mice that died [22]: 0
- feces appearance [23]: D
- number of mice that died [23]: 0
- feces appearance [24]: D
- number of mice that died [24]: 0
- feces appearance [25]: D
- number of mice that died [25]: 0
- feces appearance [26]: D
- number of mice that died [26]: 0
- feces appearance [27]: D
- number of mice that died [27]: 0
- feces appearance [28]: D
- number of mice that died [28]: 0
- feces appearance [29]: D
- number of mice that died [29]: 0
- feces appearance [30]: M
- number of mice that died [30]: 0
- feces appearance [31]: M
- number of mice that died [31]: 0
- feces appearance [32]: M
- number of mice that died [32]: 0
- feces appearance [33]: M
- number of mice that died [33]: 0
- feces appearance [34]: M
- number of mice that died [34]: 0
- feces appearance [35]: M
- number of mice that died [35]: 0
- feces appearance [36]: M
- number of mice that died [36]: 0
- feces appearance [37]: D
- number of mice that died [37]: 0
- feces appearance [38]: D
- number of mice that died [38]: 0
- feces appearance [39]: D
- number of mice that died [39]: 0
- feces appearance [40]: D
- number of mice that died [40]: 0
- feces appearance [41]: D
- number of mice that died [41]: 0
- feces appearance [42]: D
- number of mice that died [42]: 0
- feces appearance [43]: D
- number of mice that died [43]: 0
- feces appearance [44]: D
- number of mice that died [44]: 0
- feces appearance [45]: D
- number of mice that died [45]: 0
- feces appearance [46]: D
- number of mice that died [46]: 0
- feces appearance [47]: M
- number of mice that died [47]: 0
- feces appearance [48]: M
- number of mice that died [48]: 0
- feces appearance [49]: M
- number of mice that died [49]: 0
- feces appearance [50]: M
- number of mice that died [50]: 0
- feces appearance [51]: M
- number of mice that died [51]: 0
